The values that follow come from patent US20050089524A1, “Compositions and compounds for use as molecular adjuvant for a nicotine vaccine” (priority 2002, published 2005).

What is called EC50 is the concentration at which the effect is half-maximal. Lower therefore signals an effect from little substance. The term IC50 denotes the concentration at which inhibition is half-maximal. A higher IC50 goes with lower potency.

Square brackets hold non-standard residues; d marks the D form. Peptide text beside a SMILES is read from it.

The target in experiment [1] is C5a receptor (C5aR) expressed on the surface of human PMNs (human) (UniProt P21730). Briefly: competition with 125I-C5a on intact human PMNs; concentration giving 50% inhibition of 125I-C5a binding.
Experiment [2] shares this target. Briefly: competition with 125I-C5a on intact human PMNs.
Experiment [3] shares this target. Briefly: cell-based or functional assay.
Another experiment has as its system human umbilical artery. Briefly: Smooth muscle contraction of human umbilical artery. The experiment is classed as cell-based. The procedure:
(§1) Pharmacologic assays. […] Statistical analysis of the values obtained from pharmacologic assays was performed using one-way analysis of variance (ANOVA).

The test system of the next experiment is human PMNs. Briefly: MPO release from human PMNs. The format is cell-based. The procedure: as §1
Experiment [4] has as its system 51Cr-labeled P815S (HBsAg transfectant) target cells. Briefly: HBsAg-specific CTL response of immunized mice (51Cr-release assay). The format is in vivo, BALB/c mice. As to conditions: for % Specific Lysis: s.c. in PBS, boost day 21, spleen cells day 42.
The next experiment addresses T1, C5aR (Homo sapiens, UniProt P21730).
T1 construct: endogenous in cells; host or cells: intact human PMNs (polymorphonuclear leukocytes)
T1 sequence (P21730 1-350): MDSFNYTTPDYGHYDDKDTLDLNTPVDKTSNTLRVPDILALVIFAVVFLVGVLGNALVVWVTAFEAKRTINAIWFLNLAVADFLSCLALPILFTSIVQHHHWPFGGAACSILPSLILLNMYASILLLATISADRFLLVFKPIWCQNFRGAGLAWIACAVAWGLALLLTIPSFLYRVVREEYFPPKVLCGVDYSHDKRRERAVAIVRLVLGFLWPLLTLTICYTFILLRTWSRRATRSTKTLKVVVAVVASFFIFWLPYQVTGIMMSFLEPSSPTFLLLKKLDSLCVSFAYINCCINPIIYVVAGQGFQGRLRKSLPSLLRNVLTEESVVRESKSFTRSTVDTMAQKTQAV
Briefly: Binding affinity for C5aRs on human PMNs (125I-C5a competition). The procedure:
Pharmacologic assays. C5a-like agonistic activity was assessed by the ability of the peptides to induce smooth muscle contraction of human umbilical artery and […] from human PMNs according to previously published methods (Sanderson et al., 1994, supra; Sanderson et al., J. Med. Chem. 38, 3669, 1995; Finch et al., J. Med. Chem. 40, 877, 1997). Full concentration-response curves were generated for individual peptides and natural C5a in each assay and the EC50 values (the concentration of peptide producing 50% of the maximal response to each peptide) were calculated. pD2 transforms [−log EC50 (M)] were calculated for each concentration-response curve and reported as the mean±SE. Peptide binding affinity to the C5aR was evaluated on intact human PMNs by a competition assay using ^125I-C5a according to previously described methods (Sanderson et al., 1995, supra; Finch et al., 1997, supra). Statistical analysis of the values obtained from pharmacologic assays was performed using one-way analysis of variance (ANOVA).

The subject of experiment [5] is immunizing peptide and free peptides. Briefly: ELISA of sera from mice immunized with HBsAg CTL epitope-C5a agonist constructs. As to conditions: 1:50 dilution of the serum. The experiment is classed as in vivo. The procedure:
Immunization protocols. Groups of six to eight BALB/c mice were given bilateral s.c. injections in the inguinal area with (100 μl each side) of a PBS solution containing 50-100 μg of the peptides. Booster injections were given s.c. in the inguinal region at 21-day intervals. Sera for Ab analysis were obtained by retro-orbital bleeds of mice under CO2 narcosis.
Antibodies to the HBsAg CTL epitope or the C5a agonist are not produced by immunization with the HBsAg CTL epitope-C5a agonist constructs. […] Thus, it was of interest to determine whether sera from mice immunized with the control peptides and epitope-C5a agonist constructs contained antibody directed against any of the peptides. […] (SEQ ID NO: 12), […]
(In general: ELISA stands for enzyme-linked immunosorbent assay.)

A short description of experiment [6]: Anti-nicotine antibodies in immune serum of rats (ELISA). The experiment is classed as in vivo, Wistar rats. The procedure:
ii. Animal Models. Five groups of male Wistar rats (ca 275 g) were immunized every other week with: 1) PBS 2) Nic-[…]aR (Nic-SEQ ID NO:1), 3) Nic-[…]aR (Nic-SEQ ID NO:1) in Freund's adjuvant, 4) Nic-[…]aR (Nic-SEQ ID NO:2), and 5) Nic-[…]aR (Nic-SEQ ID NO:2) in Freund's adjuvant. Primary immunizations were accomplished by subcutaneous (s.c.) and intrapertioneal (i.p.) injection of 100 μg of the peptides as indicated above in the presence or absences of complete Freund's adjuvant. Boosting was performed in identical fashion at two-week internals with 100 μg of the peptides in the presence of absence of Freund's adjuvant. Sera were obtained by retro-orbital sinus puncture one week after the third injection.

In experiment [7] the target is T2, C5a receptor (C5aR) expressed on the surface of human PMNs (human, UniProt P21730 1-350).
T2 construct: whole, on cells; also called C5aRs
T2 sequence (looked up): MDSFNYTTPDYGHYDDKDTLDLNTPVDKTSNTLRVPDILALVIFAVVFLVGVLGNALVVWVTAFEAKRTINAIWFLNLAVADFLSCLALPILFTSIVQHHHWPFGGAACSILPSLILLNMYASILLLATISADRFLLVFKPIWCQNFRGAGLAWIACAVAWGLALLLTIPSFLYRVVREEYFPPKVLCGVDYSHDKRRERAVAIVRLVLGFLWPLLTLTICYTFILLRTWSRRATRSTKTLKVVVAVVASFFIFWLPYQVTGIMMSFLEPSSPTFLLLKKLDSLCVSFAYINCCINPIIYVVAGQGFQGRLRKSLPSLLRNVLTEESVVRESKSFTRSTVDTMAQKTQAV
Briefly: competition with 125I-C5a on intact human PMNs.
Source text: Pharmacologic activities.

For experiment [8], the target named is T2, C5a receptor (C5aR) expressed on the …. Briefly: cell-based or functional assay.
Experiment [9] shares this target. Briefly: competition with 125I-C5a on intact human PMNs; concentration giving 50% inhibition of 125I-C5a binding.
For experiment [10] the target is unchanged. Briefly: cell-based or functional assay. The source holds these as a separate data set.
Where [11] appears, read: 100 μg s.c. and i.p., sera one week after the third injection.

As to “C5a C-terminal decapeptide agonist analog YSFKPMPLaR”, the EC50 in experiment [1] stood at 2340 nM. The pD2 (-log EC50 (M)) in [2] was 5.63. Moreover, in [3], the smooth muscle contraction of human umbilical artery, EC50 was found to be 10 nM and the smooth muscle contraction of human umbilical artery, pD2 (-log EC50 (M)) came out at 6.99.

For `CC[C@H](C)[C@H](N)C(=O)N1CCC[C@H]1C(=O)N[C@@H](CCC(N)=O)C(=O)N[C@@H](CO)C(=O)N[C@@H](CC(C)C)C(=O)N[C@@H](CC(=O)O)C(=O)N[C@@H](CO)C(=O)N[C@@H](Cc1c[nH]c2ccccc12)C(=O)N[C@@H](Cc1c[nH]c2ccccc12)C(=O)N[C@H](C(=O)N[C@@H](CO)C(=O)N[C@@H](CC(C)C)C(=O)N[C@@H](CCCNC(=N)N)C(=O)N[C@@H](CCCNC(=N)N)C(=O)N[C@@H](Cc1ccc(O)cc1)C(=O)N[C@@H](CO)C(=O)N[C@@H](Cc1ccccc1)C(=O)N[C@@H](CCCCN)C(=O)N1CCC[C@H]1C(=O)N[C@@H](CCSC)C(=O)N1CCC[C@H]1C(=O)N[C@@H](CC(C)C)C(=O)N[C@H](C)C(=O)N[C@@H](CCCNC(=N)N)C(=O)O)[C@@H](C)O` (H-IPQSLDSWWTSLRRYSFKPMPL[dA]R-OH; N-terminus assumed), the half-maximal effective concentration (EC50) in the experiment with human umbilical artery (concentration resulting in 50% maximum contraction) stood at 161 nM; in the experiment with human PMNs (concentration resulting in 50% maximum release of myeloperoxidase), 540 nM; on C5aR, 416 nM. Moreover, the “pD2 ± SE” value with human umbilical artery (−log EC50 (M), mean ± SE, n 3) is reported as 6.79 ± 0.31; in the experiment on human PMNs (−log EC50 (M), mean ± SE, n 3), 6.27 ± 0.29. Moreover, the “% Specific Lysis” value in experiment [4] (Effector:Target Ratio 6.25:1) was found to be 9%; in [4] (Effector:Target Ratio 12.5:1), 14%; in experiment [4] (Effector:Target Ratio 25:1), 23%; in experiment [4] (Effector:Target Ratio 50:1), 32%. Also, in [4] (three s.c. injections of 50 μg at 21 day intervals, no added adjuvant), the “antigen-specific CTL response” value was “generated an antigen-specific CTL response”. At C5aR, this molecule gave an IC50 of 417 nM. For the same molecule, in experiment [5], the “serum binding to the free C5a agonist and CTL epitope peptides (ELISA)” value is on record as “did not bind the free peptides”.

As for “Nic-YKQGGFLGLYSFKPMPLaR [B-cell-C5a-Nic]”, the “dipper entries on nicotine sessions, first cycle” value with male Sprague-Dawley rats (1000 mg (500 mg s.c. and 500 mg i.p.) in saline, boosted weekly for 2 weeks, nicotine 0.4 mg/kg s.c.) was “significantly less dipper entries than non-vaccinated rats on nicotine Sessions 2 and 3”. For the same molecule, the “index of learning-elevation score for the first light” value in the experiment on male Sprague-Dawley rats (first cycle) is “does not differ between vaccinated and non-vaccinated rats”. Also, in the experiment with male Sprague-Dawley rats (nicotine not present), the “dipper entries on saline sessions” value is “does not differentially affect behavior in this preparation when nicotine is not present”. In addition, in experiment [6] (setting [11]), the “Modified Minus Unmodified, BSA” value turned out to be 0 ng/mL; the “Modified Minus Unmodified, BSA-Nic” value is 33,943 ng/ml; the “Raw Data, plate coated with BSA” value is 1,298 ng/ml; the “Raw Data, plate coated with BSA-Nic” value is 35,241 ng/ml. In addition, in experiment [6] (in the presence of Freund's adjuvant, FIG. 7), the “antibody reactivity on other nicotine-modified peptides” value is on record as 172,647 ng/ml.

B1: natural C5a (ligand, UniProt P01031 678-751, looked up)
chain: TLQKKIEEIAAKYKHSVVKKCCYDGACVNNDETCEQRAARISLGPRCIKAFTECCVVASQLRANISHKDMQLGR
For the molecule B1, in experiment [7], the “pD2 (-log EC50 (M))” value amounted to 9.43. Also, in experiment [8], the “MPO release from human PMNs, EC50” value amounted to 3 nM and the “MPO release from human PMNs, pD2 (-log EC50 (M))” value came to 8.5. This molecule gave a concentration for a half-maximal effect (EC50) in experiment [9] of 0.4 nM. For the same molecule, in experiment [10], the “smooth muscle contraction of human umbilical artery, EC50” value came to 2 nM and the “smooth muscle contraction of human umbilical artery, pD2 (-log EC50 (M))” value stood at 8.77.
